Row | Compound | melting point [°C]
1 | CC(C)S(=O)(=O)c1ccccc1S(N)(=O)=O | 150 to 153
2 | CNC=C1C(=O)C(C)(C)OC1(C)C | 80 to 82
3 | CCc1nc(NC)nc2c1ncn2C1CC(F)C(CO)O1 (configuration not stated) | 99 to 100
4 | CCNC(=O)n1nc(Oc2ncc(Cl)cc2Cl)cc1C | 74 to 76
5 | CCOC(=O)Nc1ccc2c(c1)c(N)nn2C(=O)OCC | 173 to 174
6 | C#CCNc1nc2ccc(OC(F)(F)F)cc2s1 | 138 to 140
7 | N#Cc1cc(F)c(-n2nc(C(F)(F)F)n(N)c2=O)cc1F | 141
8 | CC(C)Cc1nnc2n1-c1ccc(Br)cc1C(c1ccccc1)=NC2 | 93 to 95
9 | CC(C)(C)OC(=O)C(C)(C)ON=C1C=CC=CC1CC(=O)O (configuration not stated) | 102 to 105
10 | Cc1cccc2c(Nc3cc(CO)cc(NC(=O)Oc4ccc(N(CCCl)CCCl)cc4)c3)c3ccccc3nc12 | 229 to 231
11 | O=C(N[C@H]1CC[C@H](CCN2CCN(c3nccc4c3CCO4)CC2)CC1)c1ccccc1 | 208
12 | Cc1cc(-c2ccc(C(F)(F)F)cc2)cc(-c2ccnc(-c3ccnc(N)c3)n2)n1 | 217
13 | COc1ccc(N2CCCN(c3ccnc4sc(C(N)=O)c(N)c34)CC2)cc1 | 206 to 208
14 | CCCCCC1CCC(c2ccc(-c3cc(F)c(C(F)(F)Oc4cc(F)c(C(F)(F)F)c(F)c4)c(F)c3)c(F)c2)CC1 (configuration not stated) | 74
15 | C[C@@H]1C[C@H](C)CN(C(=O)[C@@H]2Cc3ccccc3N2c2nccs2)C1 | 172 to 174
16 | O=C(CCC(=O)N1CCC(c2ccc(Cl)cc2)CC1)c1ccc2c(c1)CCN(CC1CCCCC1)CC2 | 140 to 141
17 | COc1ccc(-c2c(Cl)c(CN3C(=O)CCC3=O)nc3sc4c(c23)CC[C@H](C(N)=O)C4)cc1 | 282 to 283
18 | FC(F)(F)CSc1nc2ccccc2[nH]1 | 148 to 150
19 | COC(F)(F)c1nc2nc(C)c(F)cc2cc1C(=O)C1C(=O)CCCC1=O | 143 to 146
20 | CCOC(=O)C(=O)c1ccc2c(c1)CCCO2 | 119 to 121

Row | Compound | melting point [°C]
21 | CCCN1CCCC2CC3=C(CCC(=O)N3)CC21 (configuration not stated) | 183 to 184
22 | CN1C(=O)Cc2ccc(Cl)cc21 | 116 to 117
23 | CSCCc1nc(OCC(F)(F)F)c(C#N)c(N2CCc3ccccc3CC2)n1 | 97 to 100
24 | O=C(O)[C@@H]1CSC2(CCSCC2)N1 | 196
25 | NC(=O)C(CCN1CC[C@@H](OCc2cccc(Cl)c2)C1)(c1ccccc1)c1ccccc1 | 91 to 93
26 | NC(=O)N1CCN(c2n[nH]c3ccccc23)CC1 | 158 to 160
27 | COc1ccc(NS(=O)(=O)c2ccccc2Br)cc1N(C)C1CCN(C)CC1 | 119 to 121
28 | C=CCNc1c(C(C)=O)cnc2cn[nH]c12 | 211 to 213
29 | Oc1cncc2ccsc12 | 180
30 | Cc1cc(C)c(P(C(C)(C)C)C(C)(C)C)c(C)c1 | 36 to 37
31 | Cc1nc(-c2cn(-c3cc(C(F)(F)F)cc(-c4ccc(C(F)(F)F)cc4)n3)cn2)sc1S(=O)(=O)NC(C)(C)C | > 250
32 | CC(/C=C/c1c(C)sc(C)c1C)=C(F)\C=C\C(C)=C\C=O | 129 to 131
33 | O=c1ncc(C(F)(F)F)cn1COCc1ccc(Cl)cc1 | 120
34 | Cn1nc(N)c(C#N)c1N | 194
35 | Oc1nc2ccc(F)cc2nc1O | > 300
36 | C=CCOC(=O)c1ccc(N=Cc2ccc3c(c2Cl)C(C)(C)CCC3(C)C)cc1 | 80
37 | CC12CCC3C(CC=C4NC(=O)CCC43C)C1CC=C2I (configuration not stated) | 227 to 230
38 | Cn1nc(N)nc1NCCCOc1cccc2c(N3CCOCC3)nccc12 | 178 to 180
39 | CC(C)N(C)c1cccc([N+](=O)[O-])c1C#N | 70 to 72
40 | COc1ccccc1N1CCN(CC=CCN)CC1 | 63 to 67

Row | Compound | melting point [°C]
41 | O=c1cc(-c2cc(OCc3ccccc3)cc(OCc3ccccc3)c2)oc2cc(OCC(O)CN3CCN(c4ccccc4)CC3)ccc12 (configuration not stated) | 168 to 170
42 | CCOC(=O)C1=C(C)NC(C(OCC)OCC)=C(C(=O)OCC)C1c1ccccc1OC (configuration not stated) | 105 to 107
43 | N=c1sc2ccccc2n1C(C=O)c1ccc(Cl)cc1 (configuration not stated) | 114
44 | CNC(=O)c1ccc(N(CC(=O)OC(C)(C)C)C(=O)OC(C)(C)C)cc1 | 164 to 166
45 | COc1nccc2c(=O)n(C)c(-c3ccc(OC4CCN(C5CCC5)CC4)cc3)nc12 | 178 to 180
46 | CCCC(=O)C1=C(O)CC(c2cccc3c2OCO3)CC1=O (configuration not stated) | 81 to 82
47 | NC(=O)c1cnc(Oc2ccc(C3OCCO3)cc2F)cn1 | 169 to 172
48 | COc1ccc2c(c1)C13CCN(C)C(C2)C1(O)C=CC(=O)C3 (configuration not stated) | 213 to 215
49 | CCn1ncc2c(OC)c3c(nc21)C(=O)c1ccccc1CC3 | 197 to 200
50 | O=CNCC(O)(Cn1cncn1)c1ccc(Cl)cc1Cl (configuration not stated) | 157
51 | Cn1ncc(-c2ccnc(Cl)n2)c1-c1ccc(Cl)cc1Cl | 122 to 125
52 | COc1cc(O)c2c(c1O)C1C=CC2C1 (configuration not stated) | 151 to 153
53 | CC(C)(C)C1=CC(C(F)(F)F)=CCC1(O)C(C)(C)C (configuration not stated) | 78 to 80
54 | COC(=O)c1ccc2c(nc(C)n2C)c1C(=O)OC | 205 to 208
55 | Clc1ccc2c(c1)C(c1ccccc1)=NCc1nccn1-2 | 146 to 148
56 | CCOC(=O)CCC(C)C1CCC2C3C(O)C(CC)C4CC(O)CCC4(C)C3CCC12C (configuration not stated) | 55 to 57
57 | CO/C=C(\Oc1cc(C#C[Si](C)(C)C)ccc1C)C(=O)OC | 125
58 | CC1=C(O)C(=O)C(C)(CC2(O)C=CC=CC2)O1 (configuration not stated) | 122 to 124
59 | C=CCc1c(OC)c(=O)[nH]c2cc(Cl)ccc2c1=O | 135 to 136

Now from value to compound:

Row | melting point [°C] | Compound
60 | 126 to 127 | CC1(C)Cc2nc(C3CC3)c(Cc3ccc(C(F)(F)F)cc3)c(-c3ccc(F)c(F)c3)c2C(O)C1 (configuration not stated)
61 | 126 to 127 | NC(CO)(CO)CCc1ccc(C(=O)CCCCc2ccccc2)cc1
62 | 79 to 81 | COc1cc(C(=O)Cc2ccccc2C)ccc1O
63 | 97 to 98 | COC(=O)CCC(OC(=O)Oc1ccccc1)C(=O)c1ccc(Cl)cc1 (configuration not stated)
64 | 83 to 84 | Fc1ccc2c(-c3cccc(OC[C@@H]4CO4)c3)noc2c1
65 | 121 to 126 | COCC(=O)C(=NNc1ccccc1F)C(=O)OC
66 | 126 to 128 | NS(=O)(=O)c1ccc(-n2nc(C(F)(F)F)cc2-c2ccc(Cl)cc2)cc1
67 | 173 | CNc1cc(Oc2ccc3ncccc3c2)ncn1
68 | 201 to 203 | CC(=O)NCc1ccc2oc([N+](=O)[O-])c(-c3ccccc3)c2c1
69 | 242 to 244 | O=C(O)C(c1ccccc1)n1c(=O)c(=O)[nH]c2ccccc21 (configuration not stated)
70 | > 300 | O=C1c2ccccc2-c2[nH]c(=O)c(-c3ccccc3)nc21
71 | 173 to 174 | O=C(O)CCCc1cc2nc(Cl)ccc2n1S(=O)(=O)c1cccc(Cl)c1Cl
72 | 137 to 141 | CCc1c(-c2ccc(O)cc2)c2cc(COC)c3cccc1n32
73 | 165 to 168 | O=C(O)c1cccc(-c2ccc(OC[C@H](O)CCc3cccnc3)cc2)c1
74 | 173 to 174 | C=C(c1ccccc1)C(O)C(NC=O)C(=O)OC (configuration not stated)
75 | 209 to 210 | Clc1cc2c(cc1Cl)Nc1ccccc1C(NCc1cccnc1)=N2
76 | 117 to 118 | CCCCn1c(=O)c2c(ncn2S(=O)(=O)Cc2ccccc2)n(CCCC)c1=O
77 | 138 to 139 | COc1ccc(C(=O)CC(=O)c2snc(Cl)c2Cl)cc1
78 | 80 to 81 | Cc1c(C)c2c(c(C)c1O)SC(C)(c1ccccc1)O2 (configuration not stated)
79 | 159 to 161 | FC(F)(F)c1ccc(Cn2cnc3c(-c4ccco4)ncnc32)cc1
80 | 188 | OCc1cc2cc(OCc3ccccc3)c(F)cc2nc1I
81 | 163 to 166 | Cc1cc2cc(CN3CCCC3)cnc2cc1NC(=O)c1ccc(-c2ccc(F)cc2)c(F)c1

Row | melting point [°C] | Compound
82 | 73 to 74 | Cc1cc(Oc2cccc(C(F)(F)F)c2)nn1C(=O)Nc1ccc(Cl)cc1
83 | 74 to 76 | C=CCCCOc1ccc(-c2ccc([N+](=O)[O-])cc2)cc1
84 | 187 to 189 | Cc1ccc(-c2ccc3c(c2)C=C(C(=O)Nc2ccc(CN4CCCCC4)cc2)CC3)cc1
85 | 67 to 67.5 | O=C(Oc1ccc(CCN(F)F)cc1)c1ccccc1
86 | 168 to 170 | CC(=O)NC(C(=O)NCc1ccncc1)c1ccco1 (configuration not stated)
87 | 209 to 210 | CC1(c2ccc([N+](=O)[O-])cc2)C(=O)Nc2cc(Cl)ccc2C1=O (configuration not stated)
88 | 204 to 205 | CN(C)c1ccc(NC(=O)c2cc3cc([Si](C)(C)C)ccc3n2Cc2cccc(F)c2)cn1
89 | 117 to 119 | CCOC(=O)Cc1ccc(CC2(CNS(=O)(=O)c3ccc(Cl)cc3)CCCC2)cc1
90 | 102 | Nc1ccc(Oc2ccccc2C(=O)Oc2ccccc2)cc1
91 | 121 to 123 | Cc1ccc(S(=O)(=O)N(Cc2cc(C(C)(C)C)c(O)c(C(C)(C)C)c2)c2cccnc2)cc1
92 | 135 to 139 | COc1ccc(-c2csc(NC(=O)COc3ccc(Cl)cc3Cl)n2)cc1
93 | 132 to 134 | COc1c(OC)c(OC)c2c(=O)cc(-c3ccc(OCc4ccccc4)cc3)oc2c1OC
94 | 135 to 140 | CCCn1c(=O)c2c(n(Cc3ccccc3)c1=O)NN=C(NC(C)=O)S2
95 | 167 to 168 | CS(=O)(=O)c1ccc(C2=C(c3ccccc3)C(=O)c3ccccc32)cc1
96 | 208 to 210 | CCOCCCNc1nc(C)[nH]c2cc(-c3ccccc3)nc1-2
97 | 113 to 114 | CCOP(=O)(/C=C/c1cn(-c2ccccc2)nc1OCc1ccc(OCc2sc(-c3ccccc3)nc2C)c(OC)c1)OCC
98 | 208 to 209 | S=c1n(CNc2ccc(Br)cc2)nc(-c2ccncc2)n1-c1ccccc1
99 | 198 to 199 | NNC(=O)c1ccc2occ(-c3cc(F)ccc3F)c2c1
100 | 211 to 213 | N#Cc1nn(-c2ccc(S(N)(=O)=O)cc2)c2c1CSc1ccccc1-2
101 | 121 to 123 | CN(CCN(C)C1=C(O)C(=O)c2ccccc2C1=O)Cc1ccccc1
102 | 79 to 81 | CCOC(=O)C1=C(C)N=C(SCc2ccc(OC)cc2)N(C(=O)OCC)C1c1cccc(OC)c1 (configuration not stated)

Reference: a melting point compilation (Tetko et al.; mined from patent text by program, amines drawn as free bases though some values may be those of a salt)
